In patent US10842892B2, “Methods and apparatus for synthesizing imaging agents, and intermediates thereof” (Lantheus Medical Imaging, Inc., priority 2010, dated 2020):

Key:
[1] = tested on: blood brain barrier (BBB); assay: brain uptake with and without blood brain barrier disruption; format: in vivo, rat
Experimental: Male Sprague-Dawley rats were anesthetized with sodium pentobarbital and the left external carotid artery was cannulated close to the internal and external carotid bifurcation. Using saline as control and 25% D-mannitol as hypertonic solution, each were perfused retrogradely in six animals (0.3 mL/kg/sec) for 30 seconds. Two minutes later, ˜1 mCi imaging agent 1 was injected via tail vein and the brain was imaged with a microPET camera for 30 minutes. […] Following completion of imaging, the brain was harvested, photographed and dissected into left and right hemispheres and cerebellum. The tissue content of imaging agent 1 radioactivity was measured by gamma counter and Evans blue levels were determined by fluorescence method for calculation of the % injected dose/gram tissue and μg Evan blue/gram tissue, respectively.

myocardial ischemia = assay: imaging agent 1 and ^82Rb PET versus ^99mTc sestamibi SPECT, perfusion defect assessment (phase II); format: in vivo, human
Experimental: Twenty-six patients (20 men) who underwent ^99mTc sestamibi SPECT and imaging agent 1 PET within 6 months at a single center in a phase II clinical trial were compared to 23 patients (matched by summed difference score (SDS) on SPECT) who underwent ^99mTc sestamibi SPECT and ^82Rb PET (25-50 mCi) within 6 months without change in clinical state. PET was performed with imaging agent 1 at rest (2.3-3.9 mCi) followed 60 min or 24 h later with exercise or adenosine stress (7.3-8.6 mCi). Perfusion defects on SPECT and PET were assessed by computer-assisted visual interpretation, using the standard 17 segment, 5 point-scoring model (0=normal; 4=absent uptake). The extent and severity of ischemia (SDS) was derived from the difference between summed stress score (SSS) and summed rest scores (SRS).
Twenty six patients (20 men) underwent SPECT and PET within 6-months. PET was performed with imaging agent 1 at rest (2.3-3.9 mCi) followed 60 min (n=18) or 24 h (n=8) later with exercise (n=16) or adenosine (n=10) stress (7.3-8.6 mCi). Image quality of SPECT and PET was consensually assessed by 2 independent blinded readers and graded as excellent, good, or fair. Stress and rest perfusion defects on SPECT and PET were assessed by the same readers by computer-assisted visual interpretation, using the standard 17 segment, 5 point-scoring model (0=normal; 4=absent uptake). The extent and severity of ischemia (summed difference score (SDS)) was derived from the difference between summed stress (SSS) and summed rest scores (SRS). Image quality with PET was excellent in 24 and good in 2 patients. In contrast, there were 7 excellent, 18 good, and 1 fair quality study, p<0.001 by SPECT. In 14 patients with abnormal SPECT (SSS≥4), mean SDS was greater with PET than with SPECT (9.6±1.8 vs. 5.4±0.7, p=0.02). In all 12 patients with normal SPECT (SSS<4), SDS was zero by PET and SPECT.

[2] = tested on: stress induced myocardial perfusion abnormalities; assay: rest-stress imaging agent 1 PET versus Tc-99m Sestamibi SPECT MPI, single center; format: in vivo, human; conditions: myocardial segments supplied by diseased coronary arteries, 13 patients
Experimental: Thirteen patients, from a single center, underwent rest-stress Tc-99m Sestamibi SPECT MPI, rest-stress imaging agent 1 PET MPI and coronary angiography. In each patient, 17 myocardial segments were visually scored for rest and stress images by independent observers who were blinded to all other results. For each patient, summed stress scores (SSS), summed rest scores (SRS), and summed difference scores (SDS) were determined from segmental scores. Percent narrowing in each coronary artery was evaluated blindly and 70% luminal diameter narrowing was considered significant.

[3] = 25% D-mannitol compared to saline control
[4] = matched group of 13 patients with abnormal SPECT (^82Rb PET group)

increase in uptake, cerebellum [1, 3] | increase in uptake, left hemisphere [1, 3] | increase in uptake, right hemisphere [1, 3] | Brain uptake, cerebellum ([1]; BBBD (25% D-mannitol) rats) | Brain uptake, left hemisphere ([1]; BBBD (25% D-mannitol) rats) | Brain uptake, right hemisphere ([1]; BBBD (25% D-mannitol) rats) | Brain uptake, cerebellum ([1]; control (saline) rats) | Brain uptake, left hemisphere ([1]; control (saline) rats) | Brain uptake, right hemisphere ([1]; control (saline) rats) | Compound | mean SDS (summed difference score) (myocardial ischemia; [4]) | differences in SDS, PET compared to SPECT (myocardial ischemia; patients with normal SPECT (SSS<4)) | SDS [2] | SRS [2] | SSS [2] | SDS (myocardial ischemia; 12 patients with normal SPECT (SSS<4)) | mean SDS (summed difference score) (myocardial ischemia; 14 patients with abnormal SPECT (SSS≥4)) | image quality excellent, number of patients (myocardial ischemia; 26 patients, 2 blinded readers) | image quality fair, number of patients (myocardial ischemia; 26 patients, 2 blinded readers) | image quality good, number of patients (myocardial ischemia; 26 patients, 2 blinded readers)
186% | 633% | 216% | 83 ± 12 µg/g | 154 ± 13 µg/g | 60 ± 8 µg/g | 29 ± 4 µg/g | 21 ± 2 µg/g | 19 ± 2 µg/g | Cc1cc(-c2ccc(/N=N/c3ccc4c(S(=O)(=O)O)cc(S(=O)(=O)O)c(N)c4c3O)c(C)c2)ccc1/N=N/c1ccc2c(S(=O)(=O)O)cc(S(=O)(=O)O)c(N)c2c1O [Evans blue] | – | – | – | – | – | – | – | – | – | –
– | – | – | – | – | – | – | – | – | [82Rb+].[Cl-] [^82Rb, rubidium-82 (^82Rb) chloride] | 4.9±1.4 | no differences | – | – | – | – | – | – | – | –
– | – | – | – | – | – | – | – | – | [C-]#[N+]CC(C)(C)OC.[C-]#[N+]CC(C)(C)OC.[C-]#[N+]CC(C)(C)OC.[C-]#[N+]CC(C)(C)OC.[C-]#[N+]CC(C)(C)OC.[C-]#[N+]CC(C)(C)OC.[Tc] [^99mTc sestamibi] | 4.6±1.3 | – | 5.4 ± 4.2 | 3.1 ± 3.3 | 8.6 ± 5.8 | zero | 5.4±0.7 | 7 | 1 | 18
